Laboratory results from ChEMBL document CHEMBL1201862, “PubChem BioAssay data set” (2004).
Activity calls are given as the source filed them.

Assays:
[1] = alpha-synuclein stem-loop luciferase translation blockers – H4 neuroglioma cells, luminescence, confirmation (AID 1988); type: functional, cell-based
[2] = luciferase reporter signal suppression in cells – H4 neuroglioma cells, luminescence, dose response (AID 1990); type: functional, cell-based
[3] = Luminescence Cell-Based Dose Response HTS to Identify Inhibitors of 5'UTR Stem-Loop Driven Prion Protein mRNA Translation in H4 Neuroglioblastoma Cells. [Related pubchem assays: 1827 (Project Summary), 1813 (Primary HTS)]; type: functional
[4] = inhibition of ARNT PAS-B/TACC3 complex formation – biochemical, AlphaScreen, cherry-picked samples, confirmation (AID 651703); type: functional, Homo sapiens;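 note: His-tagged ARNT PAS-B domain paired with GST-TACC3 E629A dimer coactivator fragment; potency of inhibitors that break up the complex and lower AlphaScreen signal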
[5] = target: Adenosylmethionine-8-amino-7-oxononanoate aminotransferase (Mycobacterium tuberculosis, UniProt P9WQ81); assay: Mycobacterium tuberculosis BioA enzyme inhibitor Measured in Biochemical System Using Plate Reader - 2163-02_Inhibitor_Dose_CherryPick_Activity.; type: functional, Mycobacterium tuberculosis UT205
Chain of Adenosylmethionine-8-amino-7-oxononanoate aminotransferase (P9WQ81 whole entry): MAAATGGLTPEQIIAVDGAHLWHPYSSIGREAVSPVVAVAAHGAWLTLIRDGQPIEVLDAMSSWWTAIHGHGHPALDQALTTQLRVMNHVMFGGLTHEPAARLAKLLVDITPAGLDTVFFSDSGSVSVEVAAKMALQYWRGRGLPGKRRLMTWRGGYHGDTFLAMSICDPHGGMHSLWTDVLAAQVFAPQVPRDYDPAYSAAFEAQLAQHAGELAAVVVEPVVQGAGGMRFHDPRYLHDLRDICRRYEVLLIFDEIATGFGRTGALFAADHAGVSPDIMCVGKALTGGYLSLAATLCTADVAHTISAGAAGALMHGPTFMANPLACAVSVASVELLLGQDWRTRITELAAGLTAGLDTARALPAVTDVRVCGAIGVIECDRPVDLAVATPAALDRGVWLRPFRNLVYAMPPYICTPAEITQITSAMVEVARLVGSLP

[6] = target: T1, Orexin/Hypocretin receptor type 1 (Homo sapiens, UniProt O43613); assay: Homogeneous Time Resolved Fluorescence (HTRF)-based cell-based high throughput dose response assay for antagonists of the orexin 1 receptor (OX1R; HCRTR1). [Related pubchem assays (depositor defined):AID434989, AID435008, AID463079, AID485270, AID492963, AID492964, AID492965, AID493232, AID504717, AID504718]; type: functional
T1 sequence (O43613 whole entry): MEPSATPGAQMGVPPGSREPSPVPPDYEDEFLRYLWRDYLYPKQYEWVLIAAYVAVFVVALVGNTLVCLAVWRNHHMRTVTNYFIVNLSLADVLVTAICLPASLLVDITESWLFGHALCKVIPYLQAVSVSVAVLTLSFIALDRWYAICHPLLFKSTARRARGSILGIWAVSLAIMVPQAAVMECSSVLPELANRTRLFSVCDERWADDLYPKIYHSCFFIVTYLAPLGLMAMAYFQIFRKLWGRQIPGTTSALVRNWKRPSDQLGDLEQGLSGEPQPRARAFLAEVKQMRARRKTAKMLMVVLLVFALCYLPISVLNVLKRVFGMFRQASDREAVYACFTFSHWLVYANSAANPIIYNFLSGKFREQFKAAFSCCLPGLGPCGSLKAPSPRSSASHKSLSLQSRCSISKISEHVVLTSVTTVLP

Orexin receptor type 2 [7] = target: T2, Orexin receptor type 2 (Homo sapiens, UniProt O43614); assay: Counterscreen assay for antagonists of the orexin 1 receptor (OX1R; HCRTR1): Homogeneous Time Resolved Fluorescence (HTRF)-based cell-based dose response assay for antagonists of the orexin 2 receptor (OX2R; HCRTR2), run by assay provider.; type: functional
T2 sequence (O43614 whole entry): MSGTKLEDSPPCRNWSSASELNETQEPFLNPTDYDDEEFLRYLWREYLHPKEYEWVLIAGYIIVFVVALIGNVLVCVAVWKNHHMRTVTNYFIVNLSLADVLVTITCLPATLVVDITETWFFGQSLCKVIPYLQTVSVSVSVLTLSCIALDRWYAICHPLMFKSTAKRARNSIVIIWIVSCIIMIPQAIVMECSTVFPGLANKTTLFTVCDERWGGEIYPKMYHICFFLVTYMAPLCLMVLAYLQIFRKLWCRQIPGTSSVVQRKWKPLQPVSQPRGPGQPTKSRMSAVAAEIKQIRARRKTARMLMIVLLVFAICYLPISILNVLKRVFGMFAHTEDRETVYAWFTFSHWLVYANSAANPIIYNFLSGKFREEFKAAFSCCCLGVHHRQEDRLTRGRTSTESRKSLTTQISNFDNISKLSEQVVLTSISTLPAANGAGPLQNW

[8] = target: T1, Orexin/Hypocretin receptor type 1; assay: Fluorescence-based cell-based high throughput dose response assay for antagonists of the orexin 1 receptor (OX1R; HCRTR1). [Related pubchem assays (depositor defined):AID434989, AID435008, AID463079, AID485270, AID492963, AID492964, AID492965, AID493232, AID504717, AID504718]; type: functional
Orexin receptor type 2 [9] = target: T2, Orexin receptor type 2; assay: Counterscreen assay for antagonists of the orexin 1 receptor (OX1R; HCRTR1): Fluorescence-based cell-based dose response assay for antagonists of the orexin 2 receptor (OX2R; HCRTR2), run by assay provider.; type: functional
[10] = (§1) Counterscreen for antagonists of the orexin 1 receptor (OX1R; HCRTR1): Fluorescence-based cell-based high throughput dose response assay to identify antagonists of the parental CHO cell line. [Related pubchem assays (depositor defined):AID434989, AID435008, AID463079, AID485270, AID492963, AID492964, AID492965, AID493232, AID504699, AID504701]; type: functional
CHO-K1 = assay: as §1, with “Homogeneous time resolved fluorescence (HTRF)-based” for “Fluorescence-based”, “cell-based” for “cell-based high throughput”, “CHO-K1” for “CHO”; type: functional; settings: Cricetulus griseus;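 note: potency for inhibition of ATP-stimulated IP1 production as antagonists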
[11] = target: Glucose-6-phosphate 1-dehydrogenase (Homo sapiens, UniProt P11413); assay: inhibition of Homo sapiens G6PD, dose series – biochemical, fluorescence, selectivity assay for P. falciparum G6PD inhibitor project, dose response (AID 504792); type: functional
Chain of Glucose-6-phosphate 1-dehydrogenase (P11413 whole entry, the tested form may be a part): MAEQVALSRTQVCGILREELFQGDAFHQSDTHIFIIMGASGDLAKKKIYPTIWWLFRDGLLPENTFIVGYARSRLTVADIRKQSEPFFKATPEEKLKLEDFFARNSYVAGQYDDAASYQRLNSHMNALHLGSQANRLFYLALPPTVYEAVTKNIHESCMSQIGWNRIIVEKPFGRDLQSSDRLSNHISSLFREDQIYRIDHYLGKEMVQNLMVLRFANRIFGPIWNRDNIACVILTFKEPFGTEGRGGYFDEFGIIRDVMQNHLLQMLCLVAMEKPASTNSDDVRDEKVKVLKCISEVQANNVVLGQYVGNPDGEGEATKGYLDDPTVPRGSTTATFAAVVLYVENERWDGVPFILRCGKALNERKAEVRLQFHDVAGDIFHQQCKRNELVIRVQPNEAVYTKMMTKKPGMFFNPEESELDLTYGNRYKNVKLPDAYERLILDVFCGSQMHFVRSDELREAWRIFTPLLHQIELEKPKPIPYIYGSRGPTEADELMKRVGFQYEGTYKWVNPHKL

[12] = target: Hepatocyte nuclear factor 4-alpha (Homo sapiens, UniProt P41235); type: functional, cell-based;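 note: biochemical luminescence-based dose-response counterscreen measuring inhibition of HNF4 dimerization, run alongside a screen for blockers of ABHD5–perilipin-5 interaction; split luciferase complementation of HNF4 fusion proteins in cell lysate measuring dimerization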
Chain of Hepatocyte nuclear factor 4-alpha (P41235 whole entry, the tested form may be a part): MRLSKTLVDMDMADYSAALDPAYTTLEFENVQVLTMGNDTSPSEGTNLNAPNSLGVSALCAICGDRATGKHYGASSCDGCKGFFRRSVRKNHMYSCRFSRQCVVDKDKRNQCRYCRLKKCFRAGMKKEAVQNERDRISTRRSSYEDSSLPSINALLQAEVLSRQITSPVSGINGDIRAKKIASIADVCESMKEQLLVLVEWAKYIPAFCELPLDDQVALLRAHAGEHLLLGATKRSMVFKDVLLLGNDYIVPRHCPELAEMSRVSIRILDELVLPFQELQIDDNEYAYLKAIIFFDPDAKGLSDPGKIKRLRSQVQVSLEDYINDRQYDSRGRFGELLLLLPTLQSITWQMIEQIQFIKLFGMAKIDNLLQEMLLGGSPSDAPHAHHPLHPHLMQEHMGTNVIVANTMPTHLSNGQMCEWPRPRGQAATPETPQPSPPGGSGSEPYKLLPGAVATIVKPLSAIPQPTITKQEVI

[13] = target: T3, Mannose-6-phosphate isomerase (Homo sapiens, UniProt P34949); assay: MPI inhibition at elevated mannose 6-phosphate – biochemical, fluorescence intensity, high mannose 6-phosphate, primary screen (AID 1220)
T3 sequence (P34949 whole entry): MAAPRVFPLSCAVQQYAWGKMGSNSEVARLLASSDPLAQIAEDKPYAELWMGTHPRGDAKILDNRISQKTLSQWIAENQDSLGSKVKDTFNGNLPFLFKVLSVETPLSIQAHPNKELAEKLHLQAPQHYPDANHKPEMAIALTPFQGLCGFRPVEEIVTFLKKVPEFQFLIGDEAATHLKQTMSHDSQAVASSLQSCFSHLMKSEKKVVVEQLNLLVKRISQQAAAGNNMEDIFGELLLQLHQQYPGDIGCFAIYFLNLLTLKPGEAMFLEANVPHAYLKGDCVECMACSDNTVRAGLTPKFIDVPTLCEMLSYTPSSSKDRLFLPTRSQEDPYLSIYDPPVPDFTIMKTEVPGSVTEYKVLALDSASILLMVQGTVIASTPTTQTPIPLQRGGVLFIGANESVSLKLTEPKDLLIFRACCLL

Interleukin-8 [14] = target: T4, Interleukin-8 (Homo sapiens, UniProt P10145); assay: Dose Response confirmation of uHTS small molecule hits for cystic fibrosis induced NFkb Inhibitors in a TNFa-induced IL8 counterscreen.; type: functional; settings: read-out: IC50_Mean
T4 sequence (P10145 whole entry): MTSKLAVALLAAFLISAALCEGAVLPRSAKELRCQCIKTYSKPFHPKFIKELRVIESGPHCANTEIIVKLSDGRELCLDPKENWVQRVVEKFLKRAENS

Interleukin-8 [15] = target: T4, Interleukin-8; assay: Dose Response confirmation of uHTS small molecule hits for cystic fibrosis induced NFkb Inhibitors in a PAF-induced IL8 counterscreen.; type: functional; settings: read-out: IC50_Mean
HEK293 = assay: EBV LMP1 TES2 canonical NF-kB signalling blockers – cell-based, HEK293, luciferase, cherry-pick, dose response (AID 588343); type: functional; settings: Homo sapiens
Melanocortin receptor 4 [16] = target: T5, Melanocortin receptor 4 (Homo sapiens, UniProt P32245); type: functional, cell-based;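 note: Cell-based assay with luminescence read-out, confirmatory dose-response testing for agonist activity of biased ligands at MC4R; human U2OS cells with tagged receptor and beta-arrestin; potency of agonists that increase receptor coupling to beta-arrestin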
T5 sequence (P32245 whole entry): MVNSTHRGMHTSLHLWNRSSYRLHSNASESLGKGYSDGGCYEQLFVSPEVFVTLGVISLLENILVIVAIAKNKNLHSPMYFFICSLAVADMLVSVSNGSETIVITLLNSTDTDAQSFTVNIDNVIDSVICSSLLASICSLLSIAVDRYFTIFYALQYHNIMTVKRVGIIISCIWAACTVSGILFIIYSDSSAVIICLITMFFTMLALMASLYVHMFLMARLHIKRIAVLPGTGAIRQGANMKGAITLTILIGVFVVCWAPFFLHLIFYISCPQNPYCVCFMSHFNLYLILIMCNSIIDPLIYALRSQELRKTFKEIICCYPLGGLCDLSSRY

[17] = target: T6, Histone-lysine N-methyltransferase NSD2 (Homo sapiens, UniProt O96028); type: biochemical
T6 sequence (O96028 whole entry): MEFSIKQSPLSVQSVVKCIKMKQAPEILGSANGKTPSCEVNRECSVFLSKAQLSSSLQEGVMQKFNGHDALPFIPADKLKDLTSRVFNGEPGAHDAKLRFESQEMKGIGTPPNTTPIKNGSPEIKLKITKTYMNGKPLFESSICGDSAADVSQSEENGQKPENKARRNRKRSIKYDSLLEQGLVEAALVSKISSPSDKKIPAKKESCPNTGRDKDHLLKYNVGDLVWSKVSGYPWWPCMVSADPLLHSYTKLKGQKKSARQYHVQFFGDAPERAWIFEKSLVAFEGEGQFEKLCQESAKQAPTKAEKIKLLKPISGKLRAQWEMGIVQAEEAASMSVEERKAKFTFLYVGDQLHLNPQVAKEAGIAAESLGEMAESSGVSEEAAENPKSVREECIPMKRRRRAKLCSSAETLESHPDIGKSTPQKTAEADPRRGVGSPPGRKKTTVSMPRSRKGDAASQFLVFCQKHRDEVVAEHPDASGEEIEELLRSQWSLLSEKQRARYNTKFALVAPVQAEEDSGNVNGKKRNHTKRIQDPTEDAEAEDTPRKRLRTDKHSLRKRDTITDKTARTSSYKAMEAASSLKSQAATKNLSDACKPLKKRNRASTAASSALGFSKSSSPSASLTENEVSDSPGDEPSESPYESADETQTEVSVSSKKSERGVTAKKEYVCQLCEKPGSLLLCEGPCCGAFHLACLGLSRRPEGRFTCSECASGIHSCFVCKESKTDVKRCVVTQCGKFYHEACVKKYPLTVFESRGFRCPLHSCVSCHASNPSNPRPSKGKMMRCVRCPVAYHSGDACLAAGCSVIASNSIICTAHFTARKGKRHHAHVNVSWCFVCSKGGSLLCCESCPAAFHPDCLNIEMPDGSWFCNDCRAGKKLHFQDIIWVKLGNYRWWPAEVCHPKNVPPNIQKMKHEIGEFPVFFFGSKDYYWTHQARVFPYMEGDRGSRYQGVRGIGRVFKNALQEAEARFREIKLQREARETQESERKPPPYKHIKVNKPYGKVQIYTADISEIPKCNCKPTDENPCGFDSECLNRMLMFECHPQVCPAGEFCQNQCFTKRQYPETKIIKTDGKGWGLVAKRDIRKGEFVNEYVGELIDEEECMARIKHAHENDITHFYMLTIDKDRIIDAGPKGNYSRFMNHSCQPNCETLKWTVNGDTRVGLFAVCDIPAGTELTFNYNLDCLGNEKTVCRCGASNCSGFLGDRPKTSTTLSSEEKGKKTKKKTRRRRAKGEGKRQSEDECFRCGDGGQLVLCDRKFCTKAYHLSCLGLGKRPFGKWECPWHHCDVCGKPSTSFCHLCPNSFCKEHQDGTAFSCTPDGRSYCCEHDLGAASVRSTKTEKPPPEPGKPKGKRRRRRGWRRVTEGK

[18] = target: Ras and Rab interactor 1/Tyrosine-protein kinase ABL1 (Homo sapiens, UniProt P00519+Q13671); type: functional;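 note: biochemical TR-FRET dose-response test measuring inhibition of binding between Rin1 and Abl proteins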
Chain of Ras and Rab interactor 1/Tyrosine-protein kinase ABL1 (P00519 whole entry): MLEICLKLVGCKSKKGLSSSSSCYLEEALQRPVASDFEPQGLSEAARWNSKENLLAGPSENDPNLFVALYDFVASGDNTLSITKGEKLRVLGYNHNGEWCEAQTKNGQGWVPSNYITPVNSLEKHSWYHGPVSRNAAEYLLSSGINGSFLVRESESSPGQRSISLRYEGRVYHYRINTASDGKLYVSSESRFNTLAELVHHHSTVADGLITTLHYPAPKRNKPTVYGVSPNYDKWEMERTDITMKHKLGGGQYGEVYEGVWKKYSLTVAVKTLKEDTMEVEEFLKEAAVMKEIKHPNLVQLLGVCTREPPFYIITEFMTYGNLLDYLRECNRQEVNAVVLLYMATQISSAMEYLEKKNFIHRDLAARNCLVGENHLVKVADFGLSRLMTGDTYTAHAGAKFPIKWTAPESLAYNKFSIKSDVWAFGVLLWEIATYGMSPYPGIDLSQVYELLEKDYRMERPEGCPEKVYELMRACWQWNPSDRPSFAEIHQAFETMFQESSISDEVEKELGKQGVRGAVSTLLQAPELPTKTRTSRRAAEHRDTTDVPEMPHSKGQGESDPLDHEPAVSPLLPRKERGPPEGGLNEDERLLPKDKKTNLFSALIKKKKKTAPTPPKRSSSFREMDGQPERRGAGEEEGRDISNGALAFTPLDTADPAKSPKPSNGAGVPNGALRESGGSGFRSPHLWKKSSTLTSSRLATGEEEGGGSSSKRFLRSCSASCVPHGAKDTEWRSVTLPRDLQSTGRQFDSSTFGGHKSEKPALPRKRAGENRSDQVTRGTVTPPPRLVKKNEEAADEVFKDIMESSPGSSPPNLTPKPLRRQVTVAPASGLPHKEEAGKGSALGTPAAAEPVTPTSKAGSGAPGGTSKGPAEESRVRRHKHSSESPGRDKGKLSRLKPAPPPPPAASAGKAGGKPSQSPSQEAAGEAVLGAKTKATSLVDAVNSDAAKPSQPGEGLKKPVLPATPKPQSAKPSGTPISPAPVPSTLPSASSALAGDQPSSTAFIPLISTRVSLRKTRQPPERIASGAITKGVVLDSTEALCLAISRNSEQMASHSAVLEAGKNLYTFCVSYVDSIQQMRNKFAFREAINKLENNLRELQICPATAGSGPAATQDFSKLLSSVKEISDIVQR
Chain of Ras and Rab interactor 1/Tyrosine-protein kinase ABL1 (Q13671 whole entry): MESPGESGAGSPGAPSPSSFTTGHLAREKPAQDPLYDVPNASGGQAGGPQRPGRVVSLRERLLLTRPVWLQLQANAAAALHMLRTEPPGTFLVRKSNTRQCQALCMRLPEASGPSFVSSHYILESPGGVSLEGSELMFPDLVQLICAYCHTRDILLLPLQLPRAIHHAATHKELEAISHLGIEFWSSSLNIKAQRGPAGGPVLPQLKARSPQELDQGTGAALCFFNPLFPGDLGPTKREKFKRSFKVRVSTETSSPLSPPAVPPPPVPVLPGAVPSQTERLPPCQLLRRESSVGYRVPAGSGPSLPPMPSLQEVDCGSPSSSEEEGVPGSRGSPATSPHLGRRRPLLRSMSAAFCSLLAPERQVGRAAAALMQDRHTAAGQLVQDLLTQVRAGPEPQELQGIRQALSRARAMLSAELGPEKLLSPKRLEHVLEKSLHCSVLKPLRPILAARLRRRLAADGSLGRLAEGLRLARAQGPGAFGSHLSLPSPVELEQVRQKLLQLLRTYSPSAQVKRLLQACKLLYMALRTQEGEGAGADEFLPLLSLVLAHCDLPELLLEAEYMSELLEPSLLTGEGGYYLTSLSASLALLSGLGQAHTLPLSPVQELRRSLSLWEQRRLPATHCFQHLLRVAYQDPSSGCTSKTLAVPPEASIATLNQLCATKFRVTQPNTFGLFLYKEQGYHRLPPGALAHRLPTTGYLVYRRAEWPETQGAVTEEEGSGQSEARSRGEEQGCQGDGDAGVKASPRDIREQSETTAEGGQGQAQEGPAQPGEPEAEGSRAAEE

Melanocortin receptor 4 [19] = target: T5, Melanocortin receptor 4; assay: inhibitors of MC4R cAMP signaling – cell-based, TR-FRET, biased antagonists, dose response (AID 602298); type: functional;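 note: antagonist potency against agonist-stimulated cAMP production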
[20] = cAMP pathway inhibition in counterscreen cell line – TR-FRET cAMP detection, counter-screen for MC4R biased antagonist project, dose response (AID 602305); type: functional, cell-based;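 note: U2OS cells stimulated with forskolin near its EC80 as the cAMP inducer; potency is for inhibition of forskolin-stimulated cAMP signaling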
[21] = target: Mitogen-activated protein kinase 10 (Homo sapiens, UniProt P53779); assay: Dose response biochemical screening assay for inhibitors of c-Jun N-Terminal Kinase 3 (JNK3). [Related pubchem assays: 746 ]
Chain of Mitogen-activated protein kinase 10 (P53779 whole entry, the tested form may be a part): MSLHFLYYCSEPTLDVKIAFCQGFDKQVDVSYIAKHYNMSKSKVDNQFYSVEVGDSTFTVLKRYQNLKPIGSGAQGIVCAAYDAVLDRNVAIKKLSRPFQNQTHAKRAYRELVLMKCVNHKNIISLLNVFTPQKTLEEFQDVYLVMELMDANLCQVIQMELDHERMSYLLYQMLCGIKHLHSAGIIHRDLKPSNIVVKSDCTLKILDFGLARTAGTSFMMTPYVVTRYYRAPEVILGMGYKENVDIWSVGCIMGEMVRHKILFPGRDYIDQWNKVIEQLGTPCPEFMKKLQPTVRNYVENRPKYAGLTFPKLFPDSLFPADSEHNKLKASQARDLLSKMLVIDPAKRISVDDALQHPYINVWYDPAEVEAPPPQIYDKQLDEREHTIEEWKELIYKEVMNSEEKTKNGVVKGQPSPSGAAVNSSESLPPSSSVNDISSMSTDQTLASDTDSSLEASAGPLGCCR

[22] = HIV-1 AD8 envelope cell-cell fusion blockers – cherry-pick, dose response (AID 652062); type: functional, cell-based;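 note: luciferase signal from cell-cell fusion driven by HIV-1 clade B AD8 Env; potency is for inhibitors of fusion seen as a drop in luminescence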
[23] = blockers of HIV-1 envelope-mediated cell-cell fusion – cherry-pick, dose response (AID 652057); type: functional, cell-based

O=C(NCCCn1ccnc1)C(=O)NCC1OCCCN1S(=O)(=O)c1ccccc1 (centres undefined)
EC50 [1]: > 120 µM (not active)
EC50 [2]: > 120 µM (not active)
EC50 [3]: 17.5 µM (active)
AC50 [4]: 80 µM (active)

COc1cc(OC)c(C(=O)Nc2cccnc2)cc1OC
AC50 [5]: 1.81 µM (active)

COc1cccc(OP(=O)(Nc2ccccc2)Oc2cccc(OC)c2)c1
IC50 [6]: 9.26 µM (active)
IC50 (Orexin receptor type 2 [7]): > 50 µM (inactive)
IC50 [8]: 14.5 µM (inactive)
IC50 (Orexin receptor type 2 [9]): > 88.8 µM (inactive)
IC50 [10]: > 49.7 µM (inactive)
IC50 (CHO-K1): > 66.2 µM (inactive)

CC1=CC(C)(C)Nc2ccc(OC(=O)CN3C(=O)c4cccc5cccc(c45)C3=O)cc21
IC50 [11]: 64.2 µM (inactive)
IC50 [12]: 6.95 µM (active)
IC50 [13]: 33 µM (active)

CCn1c(=O)c2c(cnn2C)c2ccccc21
IC50 (Interleukin-8 [14]): > 79 µM (inactive)
IC50 (Interleukin-8 [15]): 46.2 µM (inactive)
AC50 (HEK293): 35.3 µM (active)

O=C(NC1CCCCC1)C(c1ccnc2ccccc12)n1c(=O)c(-c2ccco2)nc2ccccc21 (centres undefined)
IC50 [12]: 2.23 µM (active)

Cc1ccccc1-c1nc(-c2ccc(NC(=O)c3ccc4c(c3)OCO4)cc2)no1
EC50 (Melanocortin receptor 4 [16]): > 89.1 µM (inactive)

CCOC(=O)CCCCC(=O)c1[nH]c(O)nc1CSc1nc(C)cc(O)n1
AC50 [17]: 8.18 µM (active)
IC50 [18]: 0.192 µM (active)

O=C(c1ccc(Br)s1)N1CCN(Cc2ccc3c(c2)OCO3)CC1
AC50 [5]: 1.64 µM (active)

Cc1cc2nccc(-c3ccc(Cl)c([N+](=O)[O-])c3)n2n1
IC50 (Melanocortin receptor 4 [19]): > 64.6 µM (inactive)
IC50 [20]: > 64.6 µM (inactive)

N#CC(C#N)c1ccnc2ccccc12
IC50 (Interleukin-8 [14]): 40.4 µM (inactive)
IC50 (Interleukin-8 [15]): > 79 µM (inactive)
AC50 (HEK293): 11.5 µM (active)

CCn1c(C)cs/c1=N/C(=O)c1ccccc1O
IC50 [6]: 2.69 µM (active)
IC50 (Orexin receptor type 2 [7]): > 50 µM (inactive)
IC50 [21]: 40.7 µM (not active)
IC50 [8]: 7.37 µM (active)
IC50 (Orexin receptor type 2 [9]): > 88.8 µM (inactive)
IC50 [10]: > 49.8 µM (inactive)
IC50 (CHO-K1): > 66.3 µM (inactive)

O=S(=O)(NC1CC1)c1ccc(S(=O)(=O)N2CCCc3ccccc32)cc1
IC50 [6]: 6.71 µM (active)
IC50 (Orexin receptor type 2 [7]): 6.62 µM (active)
IC50 [8]: 6.07 µM (active)
IC50 (Orexin receptor type 2 [9]): > 88.8 µM (inactive)
AC50 [22]: 16.9 µM (active)
IC50 [10]: 18.2 µM (inactive)
AC50 [23]: 28.3 µM (active)
IC50 (CHO-K1): > 66.2 µM (inactive)

O=C1OCCC1Sc1nc2cc(Cl)ccc2n1Cc1ccccc1 (centres undefined)
IC50 (Melanocortin receptor 4 [19]): > 64.6 µM (inactive)
IC50 [20]: > 64.6 µM (inactive)
